Series [1] deals with T1, human serum albumin (HSA) (Homo sapiens, UniProt P02768).
T1 construct: purchased Sigma Aldrich
Description: Taylor dispersion (OneStep) SPR, kinetic analysis of flavonoids on immobilized HSA. It counts as binding. The conditions noted are these: for kon / koff: pH 7.4, HSA. The procedure:
(§1) Hydroxyl-gel modified sensor chips and coupling reagents for the Pioneer SPR instrument (SensiQ Technologies, Oklahoma City, OK, USA) were obtained from Xantec (Duesseldorf, Germany). […] All analyses were performed at 25 °C. 10 mM HEPES (pH 7.4) with 150 mM NaCl, 0.005% Tween-20, 1.26 mM EDTA, and 5% DMSO was used as the running buffer.
(§2) HSA (essentially fatty acid free; Sigma Aldrich, St. Louis, MO, USA) and GSTP1 (Fitzgerald Industries International, North Acton, MA, USA) (50 μg/mL in 10 mM sodium acetate, pH 5.0) were immobilized on polycarboxylate hydrogel sensor chip surfaces using a standard amine-coupling protocol (flow rate of 10 μL/min) to obtain a density of 10–12 kRU [18]. Each of the four flavonoids was dissolved in DMSO to achieve a high concentration, then further diluted to a final 5% DMSO concentration in running buffer. Typically, the flavonoid concentration series spanned 0.01–500 μM. Five blanks were analyzed at the beginning of the analysis, and the remaining blanks were randomly injected throughout the analysis for double-referencing purposes.
(§3) In this study, we explored the SensiQ Pioneer’s dynamic SPR capability (also known as the OneStep® injection method), which is essentially a Taylor dispersion to create a gradient injection to quantify biomolecular interactions. In the Taylor dispersion method, analyte concentration is initially uniform, but it gradually changes into a sigmoidal gradient due to the combined actions of analyte diffusion and convective laminar flow within the dispersion capillary. This method saves sample preparation time, lessens the need for limited-supply sample materials, and eliminates possible human errors in the preparation of sample dilutions. Since the compounds are screened over a broader dilution range, content-rich data can be obtained from the preliminary screening step itself, and oftentimes, secondary screening can be avoided. A Taylor dispersion gradient injection of sucrose (3% w/v in running buffer) was performed in parallel as a diffusion standard to account for experimental deviations such as buffer viscosity, flow rate, temperature, etc. The analytes were injected in running buffer using the same Taylor diffusion gradient injection mode with a flow rate of 25 μL/min.
SPR response data (sensorgrams) were zeroed at the beginning of each injection and double referenced. For kinetic analyses, the responses were plotted against the analyte concentration and fit to a 1:1 (A + B = AB) or 1:2 (A + 2B = AB1 + AB2) binding model using Qdat analysis software (SensiQ Technologies, Inc., Oklahoma City, OK, USA) and GraphPad Prism 5.04 (GraphPad Software Inc., La Jolla, CA, USA).

Series [2] addresses T2, glutathione S-transferase pi isoform-1 (GSTP1) (Homo sapiens, UniProt P09211).
T2 construct: purchased Fitzgerald Industries International
Briefly: Taylor dispersion (OneStep) SPR, equilibrium analysis of flavonoids on immobilized GSTP1. The conditions noted are these: GSTP1, one binding site, 1:1 equilibrium analysis model, 25 °C. As for the experimental part:
as §1, §2, §3
SPR response data (sensorgrams) were zeroed at the beginning of each injection and double referenced. For kinetic analyses, the responses were plotted against the analyte concentration and fit to a 1:1 (A + B = AB) or 1:2 (A + 2B = AB1 + AB2) binding model using Qdat analysis software (SensiQ Technologies, Inc., Oklahoma City, OK, USA) and GraphPad Prism 5.04 (GraphPad Software Inc., La Jolla, CA, USA). […]

Series [3] concerns the target T1, human serum albumin (HSA). Briefly: Conventional (standard fixed-concentration injection) SPR, HSA-quercetin validation. Type of series: binding. The procedure:
as §1, §2
For assay validation, a conventional SPR method was used as a comparison. The interaction of HSA with quercetin was chosen for validation. For the conventional SPR method, analyte dilutions were prepared manually in a twofold dilution series starting with 500 μM as the highest concentration. […]

Where [4] appears, read: HSA, Site 1, 25 °C, OneStep SPR, global kinetic fit (1:2 model; kaempferol 1:1), read-out: KD (equilibrium dissociation constant), Site 1.
Where [5] appears, read: human, Site 1, 25 °C, OneStep SPR, global kinetic fit (1:2 model; kaempferol 1:1), read-out: ka (association rate constant), Site 1.
Setting [6] is: human, Site 1, 25 °C, OneStep SPR, global kinetic fit (1:2 model; kaempferol 1:1), read-out: kd (dissociation rate constant), Site 1.
Setting [7] is: human, Site 2, 25 °C, OneStep SPR, 1:2 model, read-out: ka (association rate constant), Site 2.
The mark [8] stands for this setting: human, Site 2, 25 °C, OneStep SPR, 1:2 model, read-out: kd (dissociation rate constant), Site 2.

These results are taken from article PMC4810398, “Protein-Flavonoid Interaction Studies by a Taylor Dispersion Surface Plasmon Resonance (SPR) Technique: A Novel Method to Assess Biomolecular Interactions” (Biosensors, 2016).

Each structure is given as a SMILES string. Values joined by “and” are separate entries in the source; they are usually repeats but may differ in a detail not shown here. Equal values may be shown once. Read-outs that look alike come from different tables or passages of the source. A value given as a limit tells only on which side of the number the result lay.

T1 sequence (P02768 25-609): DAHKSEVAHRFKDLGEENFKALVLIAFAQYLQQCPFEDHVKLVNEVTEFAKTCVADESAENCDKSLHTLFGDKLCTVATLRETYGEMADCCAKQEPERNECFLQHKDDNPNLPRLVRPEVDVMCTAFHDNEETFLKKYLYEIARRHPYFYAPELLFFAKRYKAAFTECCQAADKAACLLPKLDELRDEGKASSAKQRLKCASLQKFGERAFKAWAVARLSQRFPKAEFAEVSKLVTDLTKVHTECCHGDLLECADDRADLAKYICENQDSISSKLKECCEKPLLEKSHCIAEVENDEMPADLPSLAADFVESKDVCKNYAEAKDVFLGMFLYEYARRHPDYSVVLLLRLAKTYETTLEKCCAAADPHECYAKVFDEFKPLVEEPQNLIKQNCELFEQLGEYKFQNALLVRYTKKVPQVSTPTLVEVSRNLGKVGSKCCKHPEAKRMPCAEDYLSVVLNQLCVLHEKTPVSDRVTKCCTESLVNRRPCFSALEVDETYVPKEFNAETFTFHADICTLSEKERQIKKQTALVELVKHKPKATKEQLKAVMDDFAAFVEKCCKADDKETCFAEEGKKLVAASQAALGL
T2 sequence (P09211 whole entry, canonical isoform): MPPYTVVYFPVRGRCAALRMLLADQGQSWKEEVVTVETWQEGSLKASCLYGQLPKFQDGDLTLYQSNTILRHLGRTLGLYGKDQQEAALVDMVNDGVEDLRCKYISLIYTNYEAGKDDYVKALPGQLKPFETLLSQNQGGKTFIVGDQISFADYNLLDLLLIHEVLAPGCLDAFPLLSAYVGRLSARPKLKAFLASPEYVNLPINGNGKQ

Consider `O=c1c(O)c(-c2ccc(O)cc2)oc2cc(O)cc(O)c12` [Kaempferol, kaempferol], for which the Kd in series [1] (setting [4]) was 0.037 µM; in series [2], 45 ± 0.2 µM. Moreover, in series [1] (setting [5]), the kon came out at 48400 ± 6e+06 M⁻¹ s⁻¹. In addition, the koff in series [1] (setting [6]) turned out to be 0.002 ± 0.002 s⁻¹.

On to `O=c1cc(-c2ccc(O)c(O)c2)oc2cc(O)cc(O)c12` [Luteolin, luteolin], for which the Kd in series [1] (setting [4]) came to 63.4 µM; in series [1] (human, pH 7.4), 406 µM; in series [2], 31.5 ± 0.2 µM. The results for the kon in series [1] (setting [5]) and in series [1] (setting [7]) were 3200 ± 300000 M⁻¹ s⁻¹ and 17.1 ± 1 M⁻¹ s⁻¹, respectively. Besides, the values for the koff in series [1] (setting [6]) and in series [1] (setting [8]) were 0.205 ± 0.005 s⁻¹ and 0.007 ± 0.001 s⁻¹, respectively.

On to `O=c1c(O)c(-c2ccc(O)c(O)c2)oc2cc(O)cc(O)c12` [Quercetin, quercetin], for which the Kd is 0.068 ± 0.002 µM in series [3] (HSA, conventional SPR, two fold dilution series from 500 μM, quadruplicate, 1:2 model, read-out: KD1 (affinity towards HSA)); above 500 µM in series [3] (human, pH 7.4); 0.063 µM in series [1] (setting [4]); above 500 µM in series [1] (human, pH 7.4); ~27.5 µM and 27.5 µM in series [2]. Besides, the kon in series [1] (setting [5]) came to 240000 ± 1e+08 M⁻¹ s⁻¹; in series [1] (setting [7]) it was 100 ± 1000 M⁻¹ s⁻¹. Besides, the koff in series [1] (setting [6]) amounted to 0.016 ± 0.003 s⁻¹; in series [1] (setting [8]), 0.405 ± 0.004 s⁻¹.

For `Oc1ccc(/C=C/c2cc(O)cc(O)c2)cc1` [Resveratrol, resveratrol], the Kd stood at 0.4 µM in series [1] (setting [4]); 180 µM in series [1] (human, pH 7.4); 78 ± 0.1 µM in series [2]. The kon was found to be 7000 ± 200000 M⁻¹ s⁻¹ in series [1] (setting [5]) and 2900 ± 600000 M⁻¹ s⁻¹ in series [1] (setting [7]). Besides, the figures for the koff in series [1] (setting [6]) and in series [1] (setting [8]) were 0.003 ± 0.002 s⁻¹ and 0.52 ± 0.003 s⁻¹, respectively.
